Experimental data: patent publication US20240109917A1 (ACTELION PHARMACEUTICALS LTD, priority 2020, published 2024)
Where two headings read alike, the source gives them in different places.

Legend:
[1] = biological target: Tb-labeled inactive PDGFRβ (Homo sapiens (Human), UniProt P09619); experiment: PDGFRβ LanthaScreen Assay; format: binding; settings: read-out: PDGFR Lantha IC50
PDGFRβ = PDGFRβ (Rattus norvegicus (Rat), UniProt Q05030); experiment: PDGFRβ Cellular Assay (PDGFRb P-Y751 HTRF in A10 cells stimulated with PDGF-BB); format: cell-based
How it was run: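 Phospho-Y751 PDGFRβ was measured by HTRF in lysates of A10 rat cells. Cells received compound for 3 hours before PDGF-BB stimulation (100 ng/mL working stock).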

VEGFR2, unphosphorylated = VEGFR2, unphosphorylated (Homo sapiens (Human), UniProt P35968); experiment: VEGFR ADP GLO Assay; format: biochemical
Chain of VEGFR2, unphosphorylated (P35968 20-1356): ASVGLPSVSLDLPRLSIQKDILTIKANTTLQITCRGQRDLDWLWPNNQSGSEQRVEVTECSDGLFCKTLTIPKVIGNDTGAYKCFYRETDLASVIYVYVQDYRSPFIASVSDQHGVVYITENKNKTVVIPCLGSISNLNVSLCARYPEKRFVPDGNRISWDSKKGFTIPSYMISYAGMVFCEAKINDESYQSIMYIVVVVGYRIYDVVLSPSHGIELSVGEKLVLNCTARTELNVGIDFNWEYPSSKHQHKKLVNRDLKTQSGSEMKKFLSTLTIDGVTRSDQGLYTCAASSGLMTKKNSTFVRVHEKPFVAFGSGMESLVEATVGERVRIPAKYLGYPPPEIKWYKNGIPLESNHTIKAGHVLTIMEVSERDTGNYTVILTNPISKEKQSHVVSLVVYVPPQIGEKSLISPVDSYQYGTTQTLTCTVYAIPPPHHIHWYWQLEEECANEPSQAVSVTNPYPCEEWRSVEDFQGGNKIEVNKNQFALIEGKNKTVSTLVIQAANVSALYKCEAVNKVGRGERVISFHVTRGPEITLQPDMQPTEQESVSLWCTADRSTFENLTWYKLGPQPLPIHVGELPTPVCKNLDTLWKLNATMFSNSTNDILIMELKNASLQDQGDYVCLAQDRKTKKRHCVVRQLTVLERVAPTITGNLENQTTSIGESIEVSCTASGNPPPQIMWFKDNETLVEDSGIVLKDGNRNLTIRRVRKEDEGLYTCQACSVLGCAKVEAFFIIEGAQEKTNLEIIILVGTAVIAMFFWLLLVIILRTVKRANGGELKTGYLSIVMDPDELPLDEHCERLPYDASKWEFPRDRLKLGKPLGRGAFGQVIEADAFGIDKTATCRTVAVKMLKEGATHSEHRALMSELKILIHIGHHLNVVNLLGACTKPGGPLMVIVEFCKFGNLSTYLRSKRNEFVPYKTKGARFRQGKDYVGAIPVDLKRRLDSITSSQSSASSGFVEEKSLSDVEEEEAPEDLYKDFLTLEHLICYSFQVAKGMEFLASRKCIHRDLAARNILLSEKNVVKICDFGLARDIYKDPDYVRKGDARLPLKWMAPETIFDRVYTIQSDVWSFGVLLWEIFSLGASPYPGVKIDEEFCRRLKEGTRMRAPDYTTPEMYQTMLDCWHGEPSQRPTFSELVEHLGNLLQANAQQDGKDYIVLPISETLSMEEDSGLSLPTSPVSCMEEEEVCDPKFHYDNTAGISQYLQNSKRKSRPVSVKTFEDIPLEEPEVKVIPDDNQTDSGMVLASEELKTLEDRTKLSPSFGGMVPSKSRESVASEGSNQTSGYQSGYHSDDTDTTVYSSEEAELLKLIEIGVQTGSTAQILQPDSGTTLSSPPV

Chain of PDGFRβ (Q05030 32-1097): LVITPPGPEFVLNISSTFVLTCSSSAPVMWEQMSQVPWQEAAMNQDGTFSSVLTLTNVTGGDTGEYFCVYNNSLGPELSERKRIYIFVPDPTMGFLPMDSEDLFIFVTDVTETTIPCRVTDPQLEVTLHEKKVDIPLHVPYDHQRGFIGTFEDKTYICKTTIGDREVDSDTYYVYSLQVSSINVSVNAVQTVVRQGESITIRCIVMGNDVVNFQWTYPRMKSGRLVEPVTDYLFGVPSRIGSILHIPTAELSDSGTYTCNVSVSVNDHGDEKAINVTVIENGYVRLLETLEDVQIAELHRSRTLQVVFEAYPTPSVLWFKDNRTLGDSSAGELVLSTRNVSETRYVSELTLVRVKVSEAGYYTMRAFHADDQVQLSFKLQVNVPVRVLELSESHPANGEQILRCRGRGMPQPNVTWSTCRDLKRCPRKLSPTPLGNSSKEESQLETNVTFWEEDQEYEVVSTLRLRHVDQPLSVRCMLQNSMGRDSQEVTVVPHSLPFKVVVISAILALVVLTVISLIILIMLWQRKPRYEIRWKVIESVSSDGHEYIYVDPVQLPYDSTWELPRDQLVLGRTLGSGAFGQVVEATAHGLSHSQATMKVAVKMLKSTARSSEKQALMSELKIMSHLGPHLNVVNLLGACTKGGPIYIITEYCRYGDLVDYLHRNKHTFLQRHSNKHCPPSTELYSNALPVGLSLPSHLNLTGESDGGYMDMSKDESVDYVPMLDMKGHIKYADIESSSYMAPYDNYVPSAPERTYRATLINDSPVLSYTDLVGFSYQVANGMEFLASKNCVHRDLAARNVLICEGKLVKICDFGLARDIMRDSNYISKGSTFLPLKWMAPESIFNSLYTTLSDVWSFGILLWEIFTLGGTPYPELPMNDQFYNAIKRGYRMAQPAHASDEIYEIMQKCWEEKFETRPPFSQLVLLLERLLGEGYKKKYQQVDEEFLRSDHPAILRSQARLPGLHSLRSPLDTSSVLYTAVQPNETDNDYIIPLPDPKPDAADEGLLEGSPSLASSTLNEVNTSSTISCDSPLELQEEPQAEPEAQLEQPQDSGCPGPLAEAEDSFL
Chain of Tb-labeled inactive PDGFRβ (P09619 33-1106): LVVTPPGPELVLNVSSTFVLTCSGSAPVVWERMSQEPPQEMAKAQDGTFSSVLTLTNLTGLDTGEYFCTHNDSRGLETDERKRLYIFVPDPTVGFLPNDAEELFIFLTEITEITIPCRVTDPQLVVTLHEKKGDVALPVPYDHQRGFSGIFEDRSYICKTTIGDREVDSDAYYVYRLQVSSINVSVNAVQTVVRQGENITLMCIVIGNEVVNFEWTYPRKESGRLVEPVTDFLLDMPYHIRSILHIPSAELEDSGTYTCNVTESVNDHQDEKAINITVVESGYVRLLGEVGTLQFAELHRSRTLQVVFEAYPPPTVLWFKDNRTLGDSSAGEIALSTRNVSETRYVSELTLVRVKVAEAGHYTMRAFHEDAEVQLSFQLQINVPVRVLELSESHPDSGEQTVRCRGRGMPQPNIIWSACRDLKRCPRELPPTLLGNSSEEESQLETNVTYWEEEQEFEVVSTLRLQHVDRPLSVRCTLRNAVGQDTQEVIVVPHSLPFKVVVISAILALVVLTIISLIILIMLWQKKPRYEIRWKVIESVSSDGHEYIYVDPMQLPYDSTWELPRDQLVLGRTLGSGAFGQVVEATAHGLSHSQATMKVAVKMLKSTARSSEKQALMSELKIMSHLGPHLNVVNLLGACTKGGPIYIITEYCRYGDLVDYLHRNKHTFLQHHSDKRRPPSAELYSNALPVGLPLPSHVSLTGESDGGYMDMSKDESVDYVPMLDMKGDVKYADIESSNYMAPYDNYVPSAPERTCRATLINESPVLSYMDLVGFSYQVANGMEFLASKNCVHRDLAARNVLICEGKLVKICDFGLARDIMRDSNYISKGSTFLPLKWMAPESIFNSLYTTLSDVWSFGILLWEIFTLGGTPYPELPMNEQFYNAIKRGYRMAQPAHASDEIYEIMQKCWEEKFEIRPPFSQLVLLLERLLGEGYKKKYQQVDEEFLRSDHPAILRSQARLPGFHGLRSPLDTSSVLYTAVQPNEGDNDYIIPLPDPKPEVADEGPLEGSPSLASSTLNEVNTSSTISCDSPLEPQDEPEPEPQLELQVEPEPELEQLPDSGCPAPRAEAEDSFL

Compound | IC50 [1] [nM] | IC50 (PDGFRβ; PDGFR Cellular IC50) [nM] | IC50 (VEGFR2, unphosphorylated) [nM] | IC50 (PDGFRβ; read-out: PDGFR Cellular IC50) [nM]
COc1ncccc1-c1cn2ncc(C(=O)Nc3cc(NC(=O)CN4CCC4)cnc3C)c2s1 [Example 397, N-(5-(2-(azetidin-1-yl)acetamido)-2-methylpyridin-3-yl)-2-(2-methoxypyridin-3-yl)pyrazolo[5,1-b]thiazole-7-carboxamide] | 22.1 | 7.6 | > 7500 | –
COCCn1cc(-c2cn3ncc(C(=O)Nc4cc(NC(=O)CN5CCCC5)cnc4C)c3s2)cn1 [Example 337, 2-(1-(2-methoxyethyl)-1H-pyrazol-4-yl)-N-(2-methyl-5-(2-(pyrrolidin-1-yl)acetamido)pyridin-3-yl)pyrazolo[5,1-b]thiazole-7-carboxamide] | 46.2 | – | > 7500 | 24.9
Cc1ncc(NC(=O)CN2C[C@@H](CO)OC(C)(C)C2)cc1NC(=O)c1cnn2cc(-c3cnn(C)c3)sc12 [Example 377, (S)—N-(5-(2-(6-(hydroxymethyl)-2,2-dimethylmorpholino)acetamido)-2-methylpyridin-3-yl)-2-(1-methyl-1H-pyrazol-4-yl)pyrazolo[5,1-b]thiazole-7-carboxamide] | 6.2 | – | > 7500 | 119
Cc1ncc(NC(=O)CN2CC(C)(C)C2)cc1NC(=O)c1cnn2cc(-c3cncnc3C)sc12 [Example 398, N-(5-(2-(3,3-dimethylazetidin-1-yl)acetamido)-2-methylpyridin-3-yl)-2-(4-methylpyrimidin-5-yl)pyrazolo[5,1-b]thiazole-7-carboxamide] | 181 | – | > 7500 | 169
COc1ncc(-c2cn3ncc(C(=O)Nc4cc(NC(=O)CN5CC(C)(C)C5)cnc4C)c3s2)c(OC)n1 [Example 392, 2-(2,4-dimethoxypyrimidin-5-yl)-N-(5-(2-(3,3-dimethylazetidin-1-yl)acetamido)-2-methylpyridin-3-yl)pyrazolo[5,1-b]thiazole-7-carboxamide] | 4.6 | 4.8 | 7440 | –
COCCn1cc(-c2cn3ncc(C(=O)Nc4cc(NC(=O)CN5C[C@H]6CC[C@@H]5C6)cnc4C)c3s2)cn1 [Example 334, N-(5-(2-((1R,4S)-2-azabicyclo[2.2.1]heptan-2-yl)acetamido)-2-methylpyridin-3-yl)-2-(1-(2-methoxyethyl)-1H-pyrazol-4-yl)pyrazolo[5,1-b]thiazole-7-carboxamide] | 9.1 | 11.7 | > 7500 | –
Cc1ncc(NC(=O)C2CN(C(C)C)C2)cc1NC(=O)c1cnn2cc(-c3cn(C)nc3C)sc12 [Example 354, 2-(1,3-dimethyl-1H-pyrazol-4-yl)-N-(5-(1-isopropylazetidine-3-carboxamido)-2-methylpyridin-3-yl)pyrazolo[5,1-b]thiazole-7-carboxamide] | 4.3 | – | > 7500 | 78.8
COCC1CN(CC(=O)Nc2cnc(C)c(NC(=O)c3cnn4cc(-c5cnn(C)c5)sc34)c2)CC(C)(C)O1 (stereo not drawn) [Example 383, N-(5-(2-(6-(methoxymethyl)-2,2-dimethylmorpholino)acetamido)-2-methylpyridin-3-yl)-2-(1-methyl-1H-pyrazol-4-yl)pyrazolo[5,1-b]thiazole-7-carboxamide] | 7.8 | – | > 2500 | 15
COCCn1cc(-c2cn3ncc(C(=O)Nc4cc(NC(=O)CN5CCC56CCC6)cnc4C)c3s2)cn1 [Example 333, N-(5-(2-(1-azaspiro[3.3]heptan-1-yl)acetamido)-2-methylpyridin-3-yl)-2-(1-(2-methoxyethyl)-1H-pyrazol-4-yl)pyrazolo[5,1-b]thiazole-7-carboxamide] | 3.1 | – | > 7500 | 3.3
Cc1ncc(NC(=O)[C@@H]2CCCN2C)cc1NC(=O)c1cnn2cc(-c3cnn4c3OCCC4)sc12 [Example 349, (S)-2-(6,7-dihydro-5H-pyrazolo[5,1-b][1,3]oxazin-3-yl)-N-(2-methyl-5-(1-methylpyrrolidine-2-carboxamido)pyridin-3-yl)pyrazolo[5,1-b]thiazole-7-carboxamide] | 8.7 | – | > 7500 | 9.1
Cc1ncc(NC(=O)CN2CCC23CCC3)cc1NC(=O)c1cnn2cc(-c3ccnc(N4CCOCC4)c3)sc12 [Example 353, N-(5-(2-(1-azaspiro[3.3]heptan-1-yl)acetamido)-2-methylpyridin-3-yl)-2-(2-morpholinopyridin-4-yl)pyrazolo[5,1-b]thiazole-7-carboxamide] | 1.4 | – | > 7500 | 1.6
Cc1ncc(NC(=O)CN2CCCC[C@H]2C)cc1NC(=O)c1cnn2cc(-c3cnn(CCO)c3)sc12 [Example 33, (R)-2-(1-(2-hydroxyethyl)-1H-pyrazol-4-yl)-N-(2-methyl-5-(2-(2-methyl-piperidin-1-yl)acetamido)pyridin-3-yl)pyrazolo[5,1-b]thiazole-7-carboxamide] | 9.3 | 10.1 | > 7500 | –
COCCn1cc(-c2cn3ncc(C(=O)Nc4cc(NC(=O)CN5CCCC6(CC6)C5)cnc4C)c3s2)cn1 [Example 335, N-(5-(2-(5-azaspiro[2.5]octan-5-yl)acetamido)-2-methylpyridin-3-yl)-2-(1-(2-methoxyethyl)-1H-pyrazol-4-yl)pyrazolo[5,1-b]thiazole-7-carboxamide] | 3 | – | > 7500 | 3.5
Cc1ncc(NC(=O)C2CCN(C(C)C)C2)cc1NC(=O)c1cnn2cc(-c3cnn(C)c3C)sc12 (stereo not drawn) [Example 356, 2-(1,5-dimethyl-1H-pyrazol-4-yl)-N-(5-(1-isopropylpyrrolidine-3-carboxamido)-2-methylpyridin-3-yl)pyrazolo[5,1-b]thiazole-7-carboxamide] | 17.9 | 74.6 | > 7500 | –
COCCn1cc(-c2cn3ncc(C(=O)Nc4cc(NC(=O)CN5CCC(C6CC6)C5)cnc4C)c3s2)cn1 (stereo not drawn) [Example 341, N-(5-(2-(3-cyclopropylpyrrolidin-1-yl)acetamido)-2-methylpyridin-3-yl)-2-(1-(2-methoxyethyl)-1H-pyrazol-4-yl)pyrazolo[5,1-b]thiazole-7-carboxamide] | 4.6 | – | > 7500 | 5.1
Cc1ncc(S(=O)(=O)NCCN2CCCC2(C)C)cc1NC(=O)c1cnn2cc(-c3cnn(C)c3)sc12 [Example 359, N-(5-(N-(2-(2,2-dimethylpyrrolidin-1-yl)ethyl)sulfamoyl)-2-methylpyridin-3-yl)-2-(1-methyl-1H-pyrazol-4-yl)pyrazolo[5,1-b]thiazole-7-carboxamide] | 451 | – | > 7500 | 365
Cc1ncc(NC(=O)CN2CCC[C@H]2C)cc1NC(=O)c1cnn2cc(-c3cnn(C)c3)sc12 [Example 26, (R)-2-(1-methyl-1H-pyrazol-4-yl)-N-(2-methyl-5-(2-(2-methyl-pyrrolidin-1-yl)acetamido)pyridin-3-yl)pyrazolo[5,1-b]thiazole-7-carboxamide] | 11.7 | – | > 7500 | 5.9
Cc1ncc(NC(=O)[C@H]2CCCN2C(C)C)cc1NC(=O)c1cnn2cc(-c3cnn4c3OCCC4)sc12 [Example 347, (R)-2-(6,7-dihydro-5H-pyrazolo[5,1-b][1,3]oxazin-3-yl)-N-(5-(1-isopropylpyrrolidine-2-carboxamido)-2-methylpyridin-3-yl)pyrazolo[5,1-b]thiazole-7-carboxamide] | 6 | – | > 7500 | 6
